From patent US20120288495A1, “THERAPEUTIC COMPOSITIONS AND METHODS” (BIOTHERA, INC., priority 2009, published 2012)

Tests used:
[1] = test system: neutrophils and monocytes; details: cited from earlier work
[2] = test system: HCT-116 colorectal carcinoma; experiment: LIVE/DEAD cell mediated cytotoxicity assay: PBMC killing of KRAS-mutated tumor cells; assay type: cell-based, human
Protocol: The tumor target line HCT-116 colorectal carcinoma (American Type Culture Collection, Manassas, Va., ATCC No. CCL-247) was maintained in McCoy's 5A media supplemented with 10% fetal calf serum (Hyclone Laboratories, Inc., Logan, Utah).
Cytotoxicity was measured with the LIVE/DEAD Cell Mediated Cytotoxicity Kit (Invitrogen, Carlsbad, Calif.) according to manufacturer's instructions. Briefly, the HCT-116 target cells were stained with 1:80 dilution of DiOC18 in Phosphate Buffered Saline (PBS, Mediatech Inc. Manassas, Va.) and incubated at 37° C. for 30 minutes. The cells were then washed twice in PBS and resuspended at 2×10^6 cells/mL in complete media containing 10% human serum.
DiOC labeled target cells incubated with ERBITUX dilutions for 30 minutes at 37° C. In each well of a 96-well plate, 1.25×10^6 freshly isolated peripheral blood mononuclear cells (PBMC) along with IMPRIME-PGG dilution or 50 ng/ml IL-2 (R&D Systems, Minneapolis, Minn.) in of total volume of 100 μl media incubated at 37° C. for 30 minutes. 5×10^4 targets added to wells in 25 μl of media and assay incubated overnight at 37° C. Following incubation, target cell viability measured by staining with 125 μl of propidium iodide (PI) viability reagent diluted 1:5000 from stock solution provided in the assay kit. Cells incubated for 30 minutes at 37° C. before analysis on LSR II flow cytometer (BD Biosciences, San Jose, Calif.) to determine percentage of DiOC stained targets that intercalate the PI stain, indicating cell death.

[3] = Physicochemical properties of purified soluble β-glucan
From the text: The soluble β-glucan has an average molecular weight between about 120,000 Da and about 205,000 Da and a molecular weight distribution (polydispersity) of not more than 2.5 as determined by HR-GPC with multiple angle light scattering (HR-GPC/MALS) and differential refractive index detection. Powder X-ray diffraction and magic-angle spinning NMR determined that the product consists of polymeric chains associated into triple helices. The soluble β-glucan is typically uncharged and therefore has no pKa.

[4] = test system: IL-1, TNF, and leukotrienes; details: cited from earlier work

In the case of “poly-(1-6)-β-D-glucopyranosyl-(1-3)-β-D-glucopyranose [soluble β-glucan]”, the “number of neutrophils and monocytes and their direct antitumor activity (phagocytosis and microbial killing)” value [1] is listed as “increase the number of neutrophils and monocytes as well as their direct antitumor activity”, the “ability of human PBMCs to kill KRAS-mutated tumor cells” value ([2]; FIG. 2, flow cytometry data, in vitro) is listed as “enhances the ability of human peripheral blood mononuclear cells (PBMCs) to kill KRAS-mutated tumor cells in vitro” and the “ability of human PBMCs to kill KRAS-mutated tumor cells” value ([2]; FIG. 3, in vitro, N=1, E:T=25:1) is listed as “enhances the ability of human peripheral blood mononuclear cells (PBMCs) to kill KRAS-mutated tumor cells in vitro”. The “antitumor activity in the presence of an EGF-r antagonist antibody” value ([2]; FIG. 4, with ERBITUX, N=1, E:T=25:1) was “exhibits greater antitumor activity in the presence of an EGF-r antagonist antibody”, the pKa [3] was “has no pKa” and the solubility in water [3] was “soluble in water independent of pH”. The “production of biochemical mediators (IL-1, TNF, leukotrienes)” value [4] was “does not stimulate the production of biochemical mediators”.
